# ChEMBL document CHEMBL4304775, “Identification and characterization of a novel chemotype for human TLR8 inhibitors” (Eur J Med Chem, 2019)
# Calls of active or inactive are those of the source. The rule behind the calls is not given here.
# Tests used:
# Format in all cases: cell-based
# [1] = biological target: T1, Toll-like receptor 8 (Homo sapiens) (UniProt Q9NR97); test: Antagonist activity at human TLR8 expressed in HEK-Blue cells assessed as reduction in CL075-induced NF-kappaB activation at 10 to 25 uM incubated for 1 hr followed by CL075-stimulation and measured after 24 hrs by quanti-blue SEAP assay relative to control
# T1 sequence (whole entry): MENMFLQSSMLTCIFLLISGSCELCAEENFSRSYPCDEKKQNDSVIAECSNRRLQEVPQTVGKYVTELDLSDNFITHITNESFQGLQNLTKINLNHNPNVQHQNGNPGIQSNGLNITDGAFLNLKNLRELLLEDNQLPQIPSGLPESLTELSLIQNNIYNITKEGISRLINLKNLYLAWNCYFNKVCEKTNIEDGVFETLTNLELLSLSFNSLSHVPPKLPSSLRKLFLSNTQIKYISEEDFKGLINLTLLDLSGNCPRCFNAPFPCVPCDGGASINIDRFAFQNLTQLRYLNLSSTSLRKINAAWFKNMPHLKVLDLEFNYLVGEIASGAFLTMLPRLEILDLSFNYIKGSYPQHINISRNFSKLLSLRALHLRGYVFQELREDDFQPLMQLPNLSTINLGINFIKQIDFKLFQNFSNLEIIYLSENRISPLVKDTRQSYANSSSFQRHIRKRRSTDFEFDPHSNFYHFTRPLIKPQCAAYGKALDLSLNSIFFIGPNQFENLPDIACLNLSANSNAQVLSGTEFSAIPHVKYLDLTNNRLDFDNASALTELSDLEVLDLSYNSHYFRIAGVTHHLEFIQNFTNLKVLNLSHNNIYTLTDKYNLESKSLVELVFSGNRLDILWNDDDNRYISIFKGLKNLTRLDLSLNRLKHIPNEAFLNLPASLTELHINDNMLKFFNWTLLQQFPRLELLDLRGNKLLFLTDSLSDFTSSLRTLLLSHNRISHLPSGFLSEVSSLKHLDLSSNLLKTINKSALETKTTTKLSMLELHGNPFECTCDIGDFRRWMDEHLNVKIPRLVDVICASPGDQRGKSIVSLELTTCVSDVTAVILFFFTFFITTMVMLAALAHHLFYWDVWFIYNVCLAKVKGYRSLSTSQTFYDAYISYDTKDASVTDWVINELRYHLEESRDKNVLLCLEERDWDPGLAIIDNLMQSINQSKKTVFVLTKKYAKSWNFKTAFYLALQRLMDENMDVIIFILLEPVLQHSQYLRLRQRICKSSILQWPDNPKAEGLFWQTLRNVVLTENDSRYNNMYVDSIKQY
# [2] = biological target: T1, Toll-like receptor 8 (Homo sapiens); test: Antagonist activity at human TLR8 expressed in HEK-Blue cells assessed as reduction in CL075-induced NF-kappaB activation at 25 uM incubated for 1 hr followed by CL075-stimulation and measured after 24 hrs by quanti-blue SEAP assay relative to control
# [3] = biological target: T1, Toll-like receptor 8 (Homo sapiens); test: Antagonist activity at human TLR8 expressed in HEK-Blue cells assessed as reduction in CL075-induced NF-kappaB activation at 10 uM incubated for 1 hr followed by CL075-stimulation and measured after 24 hrs by quanti-blue SEAP assay
# [4] = biological target: T2, Toll-like receptor 8 (Homo sapiens, UniProt Q9NR97); test: Antagonist activity at human TLR8 expressed in HEK-Blue cells assessed as inhibition of CL075-induced NF-kappaB activation incubated for 1 hr followed by CL075-stimulation and measured after 24 hrs by quanti-blue SEAP assay
# T2 sequence (Q9NR97 whole entry): T1 sequence (whole entry)
# [5] = biological target: Toll-like receptor 2 (Homo sapiens) (UniProt O60603); test: Antagonist activity at TLR2 in human THP1 cells assessed as inhibition of Pam2CSK4/Pam3CSK4-induced IL-8 secretion preincubated for 1 hr followed by Pam2CSK4/Pam3CSK4 stimulation and measured after 24 hrs by ELISA
# [6] = biological target: Toll-like receptor 4 (Homo sapiens) (UniProt O00206); test: […] at TLR4 in human THP1 cells assessed as inhibition of LPS-induced IL-8 secretion preincubated for 1 hr followed by LPS-stimulation and measured after 24 hrs by ELISA
# [7] = biological target: Toll-like receptor 5 (Homo sapiens) (UniProt O60602); test: […] at TLR5 in human THP1 cells assessed as inhibition of flagellin-induced IL-8 secretion preincubated for 1 hr followed by flagellin stimulation and measured after 24 hrs by ELISA
# [8] = biological target: T3, Toll-like receptor 9 (Homo sapiens) (UniProt Q9NR96); test: […] at TLR9 in human THP1 cells assessed as inhibition of ODN2006-induced IL-8 secretion preincubated for 1 hr followed by ODN2006-stimulation and measured after 24 hrs by ELISA
# T3 sequence (whole entry): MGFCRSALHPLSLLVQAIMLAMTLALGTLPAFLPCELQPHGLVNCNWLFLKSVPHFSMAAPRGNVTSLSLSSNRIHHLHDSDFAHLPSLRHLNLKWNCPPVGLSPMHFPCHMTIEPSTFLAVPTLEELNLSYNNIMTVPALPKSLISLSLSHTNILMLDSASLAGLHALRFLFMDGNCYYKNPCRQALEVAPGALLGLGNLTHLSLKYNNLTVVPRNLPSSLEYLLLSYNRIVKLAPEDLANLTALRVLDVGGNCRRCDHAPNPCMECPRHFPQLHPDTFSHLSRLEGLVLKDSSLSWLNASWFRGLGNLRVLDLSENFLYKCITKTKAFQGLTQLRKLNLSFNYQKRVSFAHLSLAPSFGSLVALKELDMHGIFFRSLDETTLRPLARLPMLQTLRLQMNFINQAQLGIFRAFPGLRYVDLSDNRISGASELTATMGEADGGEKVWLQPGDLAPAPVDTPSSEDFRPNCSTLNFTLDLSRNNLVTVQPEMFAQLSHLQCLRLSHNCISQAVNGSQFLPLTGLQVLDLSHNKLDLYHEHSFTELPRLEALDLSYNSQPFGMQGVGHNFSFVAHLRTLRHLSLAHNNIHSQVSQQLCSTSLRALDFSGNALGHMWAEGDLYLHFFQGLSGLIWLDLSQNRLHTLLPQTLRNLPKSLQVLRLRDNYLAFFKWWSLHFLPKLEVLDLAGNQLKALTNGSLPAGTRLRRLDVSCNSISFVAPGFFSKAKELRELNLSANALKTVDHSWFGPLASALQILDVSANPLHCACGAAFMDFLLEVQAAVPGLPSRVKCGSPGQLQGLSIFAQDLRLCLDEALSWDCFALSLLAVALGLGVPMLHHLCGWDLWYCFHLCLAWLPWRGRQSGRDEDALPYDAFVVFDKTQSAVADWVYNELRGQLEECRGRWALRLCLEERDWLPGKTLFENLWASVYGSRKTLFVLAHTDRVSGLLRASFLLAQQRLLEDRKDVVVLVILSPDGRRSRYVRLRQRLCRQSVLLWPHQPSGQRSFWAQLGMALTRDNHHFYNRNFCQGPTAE
# [9] = biological target: Toll-like receptor 3 (Homo sapiens) (UniProt O15455); test: […] at TLR3 in human THP1 cells assessed as inhibition of poly(A:U)-induced IL-8 secretion preincubated for 1 hr followed by poly(A:U)-stimulation and measured after 24 hrs by ELISA
# Sequence of Toll-like receptor 3 (Homo sapiens) (O15455 whole entry): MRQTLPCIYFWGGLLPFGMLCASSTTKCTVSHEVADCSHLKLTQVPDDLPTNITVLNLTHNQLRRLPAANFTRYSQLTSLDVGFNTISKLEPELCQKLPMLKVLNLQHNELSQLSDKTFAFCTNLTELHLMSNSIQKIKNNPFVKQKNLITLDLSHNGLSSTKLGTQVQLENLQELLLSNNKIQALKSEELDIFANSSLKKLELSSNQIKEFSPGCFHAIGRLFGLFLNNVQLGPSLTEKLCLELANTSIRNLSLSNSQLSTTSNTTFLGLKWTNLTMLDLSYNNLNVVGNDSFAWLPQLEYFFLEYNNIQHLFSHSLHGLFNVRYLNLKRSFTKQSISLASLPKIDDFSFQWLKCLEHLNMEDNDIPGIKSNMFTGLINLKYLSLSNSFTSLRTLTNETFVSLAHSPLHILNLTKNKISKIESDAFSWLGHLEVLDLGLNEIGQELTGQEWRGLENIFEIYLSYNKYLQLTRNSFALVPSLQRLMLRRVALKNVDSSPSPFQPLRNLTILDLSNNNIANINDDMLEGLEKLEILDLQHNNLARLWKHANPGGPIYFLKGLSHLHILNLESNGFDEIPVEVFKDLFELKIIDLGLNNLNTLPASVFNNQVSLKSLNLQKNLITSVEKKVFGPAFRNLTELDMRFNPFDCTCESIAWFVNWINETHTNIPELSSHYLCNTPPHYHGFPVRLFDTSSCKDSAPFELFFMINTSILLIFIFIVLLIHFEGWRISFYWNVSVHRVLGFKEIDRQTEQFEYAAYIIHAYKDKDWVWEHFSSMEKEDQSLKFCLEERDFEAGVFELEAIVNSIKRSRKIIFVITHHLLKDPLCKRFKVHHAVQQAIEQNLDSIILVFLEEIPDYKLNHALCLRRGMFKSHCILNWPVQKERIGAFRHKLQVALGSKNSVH
# Sequence of Toll-like receptor 4 (Homo sapiens) (O00206 whole entry): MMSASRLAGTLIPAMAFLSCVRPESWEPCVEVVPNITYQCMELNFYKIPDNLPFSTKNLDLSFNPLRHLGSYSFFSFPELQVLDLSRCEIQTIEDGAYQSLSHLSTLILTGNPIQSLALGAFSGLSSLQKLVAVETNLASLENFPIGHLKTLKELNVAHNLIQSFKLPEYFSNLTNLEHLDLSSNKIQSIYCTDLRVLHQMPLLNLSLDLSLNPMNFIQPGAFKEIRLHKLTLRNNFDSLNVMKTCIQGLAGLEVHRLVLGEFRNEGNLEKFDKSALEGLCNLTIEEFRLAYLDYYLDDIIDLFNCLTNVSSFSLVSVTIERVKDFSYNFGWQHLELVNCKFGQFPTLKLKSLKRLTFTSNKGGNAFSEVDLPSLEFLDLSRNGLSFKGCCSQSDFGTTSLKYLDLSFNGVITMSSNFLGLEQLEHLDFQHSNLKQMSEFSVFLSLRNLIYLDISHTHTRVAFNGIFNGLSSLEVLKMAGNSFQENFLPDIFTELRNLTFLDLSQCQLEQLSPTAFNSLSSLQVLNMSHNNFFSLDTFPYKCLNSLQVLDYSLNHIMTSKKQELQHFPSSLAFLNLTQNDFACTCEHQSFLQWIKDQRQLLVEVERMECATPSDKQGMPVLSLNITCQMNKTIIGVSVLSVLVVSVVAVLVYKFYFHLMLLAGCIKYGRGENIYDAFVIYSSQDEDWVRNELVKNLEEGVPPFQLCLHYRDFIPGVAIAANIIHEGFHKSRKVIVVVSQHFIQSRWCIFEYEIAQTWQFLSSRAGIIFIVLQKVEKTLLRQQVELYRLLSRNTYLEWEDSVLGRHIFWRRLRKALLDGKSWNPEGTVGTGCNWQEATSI
# Sequence of Toll-like receptor 2 (Homo sapiens) (O60603 whole entry): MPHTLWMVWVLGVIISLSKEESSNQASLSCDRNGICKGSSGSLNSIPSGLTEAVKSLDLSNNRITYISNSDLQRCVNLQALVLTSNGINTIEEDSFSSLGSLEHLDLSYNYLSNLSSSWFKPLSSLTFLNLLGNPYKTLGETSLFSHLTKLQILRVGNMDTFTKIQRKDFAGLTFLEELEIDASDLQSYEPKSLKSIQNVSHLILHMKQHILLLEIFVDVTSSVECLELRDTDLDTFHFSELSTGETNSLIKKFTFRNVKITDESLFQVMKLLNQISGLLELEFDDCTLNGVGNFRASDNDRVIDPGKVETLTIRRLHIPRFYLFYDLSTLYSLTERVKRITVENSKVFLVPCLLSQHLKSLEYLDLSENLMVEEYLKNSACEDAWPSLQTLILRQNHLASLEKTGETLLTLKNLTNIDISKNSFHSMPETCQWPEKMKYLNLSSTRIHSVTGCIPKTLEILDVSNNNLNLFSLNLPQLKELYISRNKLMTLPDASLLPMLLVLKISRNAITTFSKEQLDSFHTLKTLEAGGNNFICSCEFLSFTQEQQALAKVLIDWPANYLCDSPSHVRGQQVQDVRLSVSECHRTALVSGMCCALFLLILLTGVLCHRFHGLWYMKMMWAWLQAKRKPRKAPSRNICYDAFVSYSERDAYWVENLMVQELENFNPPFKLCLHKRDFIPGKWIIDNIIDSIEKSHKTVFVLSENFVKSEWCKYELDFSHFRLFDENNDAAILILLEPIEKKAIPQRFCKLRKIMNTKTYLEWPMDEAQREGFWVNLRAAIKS
# Sequence of Toll-like receptor 5 (Homo sapiens) (O60602 whole entry): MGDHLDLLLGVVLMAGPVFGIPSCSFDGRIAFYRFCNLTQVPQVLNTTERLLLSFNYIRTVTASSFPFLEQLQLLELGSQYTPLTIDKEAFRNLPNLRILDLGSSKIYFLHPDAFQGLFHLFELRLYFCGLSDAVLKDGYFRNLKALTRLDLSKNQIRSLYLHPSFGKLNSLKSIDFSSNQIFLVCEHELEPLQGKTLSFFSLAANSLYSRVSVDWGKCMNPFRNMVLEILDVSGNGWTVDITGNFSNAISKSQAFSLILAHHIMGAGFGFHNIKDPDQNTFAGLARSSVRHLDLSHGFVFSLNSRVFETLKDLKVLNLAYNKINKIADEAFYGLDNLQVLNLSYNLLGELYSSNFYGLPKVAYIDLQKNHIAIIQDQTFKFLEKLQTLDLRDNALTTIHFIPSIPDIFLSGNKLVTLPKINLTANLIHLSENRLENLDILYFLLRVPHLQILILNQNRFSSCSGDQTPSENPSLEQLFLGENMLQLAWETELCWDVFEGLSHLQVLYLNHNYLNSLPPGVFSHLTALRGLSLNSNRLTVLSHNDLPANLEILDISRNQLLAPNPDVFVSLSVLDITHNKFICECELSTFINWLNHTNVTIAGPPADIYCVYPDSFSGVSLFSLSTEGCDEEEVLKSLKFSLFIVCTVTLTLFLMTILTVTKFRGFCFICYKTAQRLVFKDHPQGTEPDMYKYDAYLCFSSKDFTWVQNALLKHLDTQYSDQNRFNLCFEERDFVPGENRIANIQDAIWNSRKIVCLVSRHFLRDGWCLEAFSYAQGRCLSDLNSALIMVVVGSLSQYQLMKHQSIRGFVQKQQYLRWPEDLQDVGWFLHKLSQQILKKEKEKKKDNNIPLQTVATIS
inhibition [1],inhibition [2],inhibition [3],IC50 [4],inhibition [5],inhibition [6],inhibition [7],inhibition [8],inhibition [9],SMILES
100%,< 50%,Active,20 µM,inactive,inactive,inactive,inactive,inactive,FC(F)(F)c1cc(-c2ccccc2)nc(NCc2cccs2)n1
50%,< 50%,Active,9.2 µM,inactive,inactive,inactive,inactive,inactive,FC(F)(F)c1cc(-c2ccco2)nc(NCc2cccs2)n1
100%,< 50%,Active,35.5 µM,inactive,inactive,inactive,inactive,inactive,CCCCNc1nc(-c2cccs2)cc(C(F)(F)F)n1
